# Source: ChEMBL document CHEMBL1201862, “PubChem BioAssay data set” (2004)
# Active and inactive are the calls of the source. Cut-off read from the data, not from the text of the source: actives have a measured IC50 and inactives only a lower limit.
# Target: Envelope glycoprotein gp160 (Human immunodeficiency virus 1, UniProt Q6QLK5)
# Assay: inhibitors of HIV fusion peptide binding, primary screen, biochemical, uHTS, fluorescence dequenching (AID 1986)
# Chain of Envelope glycoprotein gp160 (Q6QLK5 whole entry, the tested form may be a part): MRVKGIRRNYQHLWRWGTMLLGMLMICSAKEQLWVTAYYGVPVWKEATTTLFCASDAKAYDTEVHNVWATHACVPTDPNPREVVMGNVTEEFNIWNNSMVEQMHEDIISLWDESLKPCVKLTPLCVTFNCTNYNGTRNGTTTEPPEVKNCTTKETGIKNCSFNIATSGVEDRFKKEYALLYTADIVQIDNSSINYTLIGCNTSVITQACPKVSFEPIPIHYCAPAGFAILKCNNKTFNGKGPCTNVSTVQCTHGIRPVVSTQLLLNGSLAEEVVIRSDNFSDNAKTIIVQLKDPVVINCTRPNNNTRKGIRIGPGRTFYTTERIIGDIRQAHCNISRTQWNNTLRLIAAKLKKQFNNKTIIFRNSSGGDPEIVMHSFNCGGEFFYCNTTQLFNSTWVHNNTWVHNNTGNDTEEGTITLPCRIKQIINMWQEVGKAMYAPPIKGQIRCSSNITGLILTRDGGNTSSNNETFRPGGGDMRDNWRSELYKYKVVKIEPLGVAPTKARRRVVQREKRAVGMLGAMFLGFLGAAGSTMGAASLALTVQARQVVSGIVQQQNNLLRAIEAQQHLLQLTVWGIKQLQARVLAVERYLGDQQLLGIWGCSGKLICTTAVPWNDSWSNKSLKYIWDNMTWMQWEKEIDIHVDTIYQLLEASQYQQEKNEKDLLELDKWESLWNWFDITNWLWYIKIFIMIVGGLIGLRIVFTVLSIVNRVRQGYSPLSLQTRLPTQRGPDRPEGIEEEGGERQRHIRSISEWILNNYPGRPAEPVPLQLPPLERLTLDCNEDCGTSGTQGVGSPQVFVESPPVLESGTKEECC
row,Compound,IC50
1,O=C(O)c1ccc(-c2ccc(/C=C3\NC(=O)N(Cc4ccc(Cl)cc4)C3=O)o2)cc1Cl,10.7 µM (active)
2,Cc1cc(N2C(=O)C(O)=C(C(=O)c3ccc(C)o3)C2c2cccc(Oc3ccccc3)c2)no1 (stereo not given),24.1 µM (active)
3,Cc1cc(N2C(=O)C(O)=C(C(=O)c3cc4ccccc4o3)C2c2ccc(Cl)cc2)no1 (stereo not given),15.9 µM (active)
4,CCOC(=O)c1sc(N2C(=O)C(O)=C(C(=O)c3ccc(C)o3)C2c2cccc([N+](=O)[O-])c2)nc1C (stereo not given),17.6 µM (active)
5,COc1cccc(C2C3=C(N=c4s/c(=C\c5ccc(OCC(=O)O)cc5)c(=O)n42)c2ccccc2CC3)c1 (stereo not given),18.6 µM (active)
